Assay results: PubChem BioAssay AID1963868 (Molecular Pharmacology Branch, DTP, NCI, 2024)

System: KRAS PDC tumor spheroids (HUVEC+MSC), viability
Experiment: Anticancer human tumor 254851-301-R-J1-PDC patient-derived colon carcinoma cell line growth inhibition [KRAS2]
Conditions: for IC50: curve of first compound; for viability, T/C: stronger effect = lower value
Summary of the method: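 KRAS-mutant tumor cells were grown as spheroids with HUVEC endothelial cells and human MSCs as stroma. Targeted agents were tested alone and with KRAS pathway inhibitors. Doses started at or near clinical Cmax, or 10 microM, descending half-log.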

[1] = second compound 0.0316 µM, first compound 0.0316 µM
[2] = second compound 0.0316 µM, first compound 0.1 µM
[3] = second compound 0.0316 µM, first compound 0.316 µM
[4] = second compound 0.0316 µM, first compound 1 µM
[5] = second compound 0.0316 µM, first compound 3.16 µM
[6] = second compound 0.0316 µM, first compound 10 µM
[7] = second compound 0.1 µM, first compound 0.0316 µM
[8] = second compound 0.1 µM, first compound 0.1 µM
[9] = second compound 0.1 µM, first compound 0.316 µM
[10] = second compound 0.1 µM, first compound 1 µM
[11] = second compound 0.1 µM, first compound 3.16 µM
[12] = second compound 0.1 µM, first compound 10 µM
[13] = second compound 0.316 µM, first compound 0.0316 µM
[14] = second compound 0.316 µM, first compound 0.1 µM
[15] = second compound 0.316 µM, first compound 0.316 µM
[16] = second compound 0.316 µM, first compound 1 µM
[17] = second compound 0.316 µM, first compound 3.16 µM
[18] = second compound 0.316 µM, first compound 10 µM
[19] = second compound 1 µM, first compound 0.0316 µM
[20] = second compound 1 µM, first compound 0.1 µM
[21] = second compound 1 µM, first compound 0.316 µM
[22] = second compound 1 µM, first compound 1 µM
[23] = second compound 1 µM, first compound 3.16 µM
[24] = second compound 1 µM, first compound 10 µM
[25] = second compound 3.16 µM, first compound 0.0316 µM
[26] = second compound 3.16 µM, first compound 0.1 µM
[27] = second compound 3.16 µM, first compound 0.316 µM
[28] = second compound 3.16 µM, first compound 1 µM
[29] = second compound 3.16 µM, first compound 3.16 µM
[30] = second compound 3.16 µM, first compound 10 µM
[31] = second compound 0.0316 µM, first compound 0.000316 µM
[32] = second compound 0.0316 µM, first compound 0.001 µM
[33] = second compound 0.0316 µM, first compound 0.00316 µM
[34] = second compound 0.0316 µM, first compound 0.01 µM
[35] = second compound 0.1 µM, first compound 0.000316 µM
[36] = second compound 0.1 µM, first compound 0.001 µM
[37] = second compound 0.1 µM, first compound 0.00316 µM
[38] = second compound 0.1 µM, first compound 0.01 µM
[39] = second compound 0.316 µM, first compound 0.000316 µM
[40] = second compound 0.316 µM, first compound 0.001 µM
[41] = second compound 0.316 µM, first compound 0.00316 µM
[42] = second compound 0.316 µM, first compound 0.01 µM
[43] = second compound 1 µM, first compound 0.000316 µM
[44] = second compound 1 µM, first compound 0.001 µM
[45] = second compound 1 µM, first compound 0.00316 µM
[46] = second compound 1 µM, first compound 0.01 µM
[47] = second compound 3.16 µM, first compound 0.000316 µM
[48] = second compound 3.16 µM, first compound 0.001 µM
[49] = second compound 3.16 µM, first compound 0.00316 µM
[50] = second compound 3.16 µM, first compound 0.01 µM
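Also: spheroids exposed to compounds for seven days before readout.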
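For viability, T/C in this document: 100% = DMSO vehicle control luminescence of the spheroids.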

| SMILES | IC50 (second compound 0.0316 µM) | IC50 (second compound 0.1 µM) | IC50 (second compound 0.316 µM) | IC50 (second compound 1 µM) | IC50 (second compound 3.16 µM) | viability, T/C [1] | viability, T/C [2] | viability, T/C [3] | viability, T/C [4] | viability, T/C [7] | viability, T/C [8] | viability, T/C [9] | viability, T/C [10] | viability, T/C [13] | viability, T/C [14] | viability, T/C [15] | viability, T/C [19] | viability, T/C [20] | viability, T/C [25] | viability, T/C [26] | other results |
| --- | --- | --- | --- | --- | --- | --- | --- | --- | --- | --- | --- | --- | --- | --- | --- | --- | --- | --- | --- | --- | --- |
| CC(C)NCC(C(=O)N1CCN(c2ncnc3c2C(C)CC3O)CC1)c1ccc(Cl)cc1 (stereo not given) + C=CC(=O)N1CCN(c2nc(OCC3CCCN3C)nc3c2CCN(c2cccc4cccc(C)c24)C3)CC1CC#N | > 10000 nM | > 10000 nM | > 10000 nM | > 10000 nM | 85.7 nM | 96.9% | 96.1% | 87.4% | 98.2% | 107% | 101% | 99.9% | 77.1% | 97.7% | 93.9% | 92% | 95.4% | 98.5% | 62% | 48.2% | viability, T/C [5]: 95.8%; viability, T/C [6]: 94.7%; viability, T/C [11]: 89.9%; viability, T/C [12]: 92.1%; viability, T/C [16]: 95.9%; viability, T/C [17]: 88.8%; viability, T/C [18]: 87.6%; viability, T/C [21]: 91.6%; viability, T/C [22]: 86.3%; viability, T/C [23]: 97.9%; viability, T/C [24]: 86.2%; viability, T/C [27]: 37%; viability, T/C [28]: 18.1%; viability, T/C [29]: 22.6%; viability, T/C [30]: 8.5% |
| CC(C)n1nc(-c2ccc3oc(N)nc3c2)c2c(N)ncnc21 + C=CC(=O)N1CCN(c2nc(OCC3CCCN3C)nc3c2CCN(c2cccc4cccc(C)c24)C3)CC1CC#N | 15.3 nM | 23.2 nM | 15.3 nM | 14.1 nM | 2.27 nM | 30.1% | 21.1% | – | – | 45.2% | 22.3% | – | – | 31.6% | 23.6% | – | 34.6% | 23.1% | 29.2% | 12.6% | viability, T/C [31]: 118%; viability, T/C [32]: 109%; viability, T/C [33]: 87.6%; viability, T/C [34]: 63.1%; viability, T/C [35]: 113%; viability, T/C [36]: 115%; viability, T/C [37]: 90.6%; viability, T/C [38]: 68.1%; viability, T/C [39]: 111%; viability, T/C [40]: 115%; viability, T/C [41]: 101%; viability, T/C [42]: 61%; viability, T/C [43]: 108%; viability, T/C [44]: 118%; viability, T/C [45]: 83%; viability, T/C [46]: 58.8%; viability, T/C [47]: 86%; viability, T/C [48]: 52.7%; viability, T/C [49]: 56.7%; viability, T/C [50]: 23.9% |
| CC1(C)CCC(CN2CCN(c3ccc(C(=O)NS(=O)(=O)c4ccc(NCC5CCOCC5)c([N+](=O)[O-])c4)c(Oc4cnc5[nH]ccc5c4)c3)CC2)=C(c2ccc(Cl)cc2)C1 + C=CC(=O)N1CCN(c2nc(OCC3CCCN3C)nc3c2CCN(c2cccc4cccc(C)c24)C3)CC1CC#N | > 10000 nM | > 10000 nM | > 10000 nM | 6390 nM | 371 nM | 95.8% | 101% | 97.3% | 98% | 98.5% | 106% | 92.4% | 100% | 106% | 107% | 80.9% | 88% | 106% | 57% | 56.2% | viability, T/C [5]: 95.6%; viability, T/C [6]: 90%; viability, T/C [11]: 90.3%; viability, T/C [12]: 86.1%; viability, T/C [16]: 85.3%; viability, T/C [17]: 81%; viability, T/C [18]: 73.8%; viability, T/C [21]: 101%; viability, T/C [22]: 81.4%; viability, T/C [23]: 70.7%; viability, T/C [24]: 37.8%; viability, T/C [27]: 45%; viability, T/C [28]: 36.4%; viability, T/C [29]: 0.19%; viability, T/C [30]: 0.19% |
| CCN1CCN(Cc2ccc(Nc3ncc(F)c(-c4cc(F)c5nc(C)n(C(C)C)c5c4)n3)nc2)CC1 + C=CC(=O)N1CCN(c2nc(OCC3CCCN3C)nc3c2CCN(c2cccc4cccc(C)c24)C3)CC1CC#N | 605 nM | 645 nM | 600 nM | 131 nM | 55.3 nM | 90.8% | 78.1% | 64.4% | 39.2% | 83.3% | 71.5% | 66.2% | 40.6% | 94.2% | 77% | 60.5% | 57.5% | 49.7% | 52.5% | 43.4% | viability, T/C [33]: 102%; viability, T/C [34]: 97.3%; viability, T/C [37]: 98.9%; viability, T/C [38]: 95.5%; viability, T/C [41]: 98%; viability, T/C [42]: 87.6%; viability, T/C [16]: 42%; viability, T/C [45]: 59.5%; viability, T/C [46]: 63.2%; viability, T/C [21]: 44.5%; viability, T/C [22]: 34.6%; viability, T/C [49]: 65.6%; viability, T/C [50]: 56.8%; viability, T/C [27]: 40.1%; viability, T/C [28]: 16% |
| CCNC(=O)CC1N=C(c2ccc(Cl)cc2)c2cc(OC)ccc2-n2c(C)nnc21 (stereo not given) + C=CC(=O)N1CCN(c2nc(OCC3CCCN3C)nc3c2CCN(c2cccc4cccc(C)c24)C3)CC1CC#N | > 10000 nM | > 10000 nM | > 10000 nM | 3640 nM | < 31.6 nM | 98.7% | 90.4% | 88.5% | 92.2% | 102% | 87.8% | 94.6% | 78.9% | 105% | 92.9% | 94.7% | 66.2% | 66.5% | 46.9% | 53.7% | viability, T/C [5]: 80.6%; viability, T/C [6]: 66.9%; viability, T/C [11]: 73.5%; viability, T/C [12]: 68.9%; viability, T/C [16]: 72.6%; viability, T/C [17]: 68%; viability, T/C [18]: 73.4%; viability, T/C [21]: 61.2%; viability, T/C [22]: 52.9%; viability, T/C [23]: 48.9%; viability, T/C [24]: 47.6%; viability, T/C [27]: 46.1%; viability, T/C [28]: 43.5%; viability, T/C [29]: 29.9%; viability, T/C [30]: 23.3% |
| Cn1ncnc1[C@H]1c2n[nH]c(=O)c3cc(F)cc(c23)N[C@@H]1c1ccc(F)cc1 + C=CC(=O)N1CCN(c2nc(OCC3CCCN3C)nc3c2CCN(c2cccc4cccc(C)c24)C3)CC1CC#N | > 100 nM | > 100 nM | > 100 nM | > 100 nM | > 100 nM | 101% | 90.9% | – | – | 103% | 100% | – | – | 96.1% | 93% | – | 95.1% | 99.8% | 50.7% | 62.9% | viability, T/C [31]: 116%; viability, T/C [32]: 112%; viability, T/C [33]: 101%; viability, T/C [34]: 97.4%; viability, T/C [35]: 107%; viability, T/C [36]: 105%; viability, T/C [37]: 98.5%; viability, T/C [38]: 100%; viability, T/C [39]: 100%; viability, T/C [40]: 104%; viability, T/C [41]: 103%; viability, T/C [42]: 94.8%; viability, T/C [43]: 101%; viability, T/C [44]: 106%; viability, T/C [45]: 94.6%; viability, T/C [46]: 88.9%; viability, T/C [47]: 62.8%; viability, T/C [48]: 68.4%; viability, T/C [49]: 61.5%; viability, T/C [50]: 47.8% |
